Experimental data from ChEMBL document CHEMBL1201862, “PubChem BioAssay data set” (2004).
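Results reflect a 48-hour exposure of cells in 96-well plates to compound at five concentrations. GI50 marks 50% less growth.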 Calls of active or inactive are those of the source. Rule as the data show it: active = GI50 up to about 1.1 µM and inactive = higher.

Key:
Assay in all cases: NCI tumour cell line growth inhibition, 48 h
786-0 = tested on: 786-0
A498 = tested on: A498
A549 = tested on: A549
BT-549 = tested on: BT-549
CAKI-1 = tested on: CAKI-1
CCRF-CEM = tested on: CCRF-CEM
COLO 205 = tested on: COLO 205
DU-145 = tested on: DU-145
EKVX = tested on: EKVX
HCC 2998 = tested on: HCC 2998
HCT-116 = tested on: HCT-116
HCT-15 = tested on: HCT-15
HL-60 = tested on: HL-60
HOP-62 = tested on: HOP-62
HOP-92 = tested on: HOP-92
HT-29 = tested on: HT-29
Hs-578T = tested on: Hs-578T
IGROV-1 = tested on: IGROV-1
K562 = tested on: K562
LOX IMVI = tested on: LOX IMVI
M14 = tested on: M14
MCF7 = tested on: MCF7
MDA-MB-231 = tested on: MDA-MB-231
MDA-MB-435 = tested on: MDA-MB-435
MDA-N = tested on: MDA-N
MOLT-4 = tested on: MOLT-4
Malme-3M = tested on: Malme-3M
NCI-H226 = tested on: NCI-H226
NCI-H23 = tested on: NCI-H23
NCI-H460 = tested on: NCI-H460
NCI-H522 = tested on: NCI-H522
NCI/ADR-RES = tested on: NCI/ADR-RES
OVCAR-3 = tested on: OVCAR-3
OVCAR-4 = tested on: OVCAR-4
OVCAR-5 = tested on: OVCAR-5
OVCAR-8 = tested on: OVCAR-8
PC-3 = tested on: PC-3
RPMI-8226 = tested on: RPMI-8226
RXF 393 = tested on: RXF 393
SF-268 = tested on: SF-268
SF-295 = tested on: SF-295
SF-539 = tested on: SF-539
SK-MEL-28 = tested on: SK-MEL-28
SK-MEL-2 = tested on: SK-MEL-2
SK-MEL-5 = tested on: SK-MEL-5
SK-OV-3 = tested on: SK-OV-3
SN12C = tested on: SN12C
SNB-19 = tested on: SNB-19
SNB-75 = tested on: SNB-75
SR = tested on: SR
SW-620 = tested on: SW-620
T47D = tested on: T47D
TK-10 = tested on: TK-10
U-251 = tested on: U-251
UACC-257 = tested on: UACC-257
UACC-62 = tested on: UACC-62
UO-31 = tested on: UO-31
ACHN = tested on: ACHN
KM12 = tested on: KM12

## Cc1nnc2cc(C(=O)O)c3ccccc3n2c1=O
786-0
  GI50: > 10 µM (inactive)
A498
  GI50: > 10 µM (inactive)
A549
  GI50: > 10 µM (inactive)
BT-549
  GI50: > 10 µM (inactive)
CAKI-1
  GI50: > 10 µM (inactive)
CCRF-CEM
  GI50: > 10 µM (inactive)
COLO 205
  GI50: > 10 µM (inactive)
DU-145
  GI50: > 10 µM (inactive)
EKVX
  GI50: > 10 µM (inactive)
HCC 2998
  GI50: > 10 µM (inactive)
HCT-116
  GI50: > 10 µM (inactive)
HCT-15
  GI50: > 10 µM
HL-60
  GI50: > 10 µM (inactive)
HOP-62
  GI50: > 10 µM (inactive)
HOP-92
  GI50: > 10 µM (inactive)
HT-29
  GI50: > 10 µM (inactive)
Hs-578T
  GI50: > 10 µM (inactive)
IGROV-1
  GI50: > 10 µM (inactive)
K562
  GI50: > 10 µM (inactive)
LOX IMVI
  GI50: > 10 µM (inactive)
M14
  GI50: > 10 µM (inactive)
MCF7
  GI50: > 10 µM (inactive)
MDA-MB-231
  GI50: > 10 µM (inactive)
MDA-MB-435
  GI50: > 10 µM (inactive)
MDA-N
  GI50: > 10 µM (inactive)
MOLT-4
  GI50: > 10 µM (inactive)
Malme-3M
  GI50: > 10 µM (inactive)
NCI-H226
  GI50: > 10 µM (inactive)
NCI-H23
  GI50: > 10 µM (inactive)
NCI-H460
  GI50: > 10 µM (inactive)
NCI-H522
  GI50: > 10 µM (inactive)
NCI/ADR-RES
  GI50: > 10 µM (inactive)
OVCAR-3
  GI50: > 10 µM (inactive)
OVCAR-4
  GI50: > 10 µM (inactive)
OVCAR-5
  GI50: > 10 µM (inactive)
OVCAR-8
  GI50: > 10 µM (inactive)
PC-3
  GI50: > 10 µM (inactive)
RPMI-8226
  GI50: > 10 µM (inactive)
RXF 393
  GI50: > 10 µM (inactive)
SF-268
  GI50: > 10 µM (inactive)
SF-295
  GI50: > 10 µM (inactive)
SF-539
  GI50: > 10 µM (inactive)
SK-MEL-28
  GI50: > 10 µM (inactive)
SK-MEL-2
  GI50: > 10 µM (inactive)
SK-MEL-5
  GI50: > 10 µM (inactive)
SK-OV-3
  GI50: > 10 µM (inactive)
SN12C
  GI50: > 10 µM (inactive)
SNB-19
  GI50: > 10 µM (inactive)
SNB-75
  GI50: 2.55 µM (inactive)
SR
  GI50: > 10 µM (inactive)
SW-620
  GI50: > 10 µM (inactive)
T47D
  GI50: > 10 µM (inactive)
TK-10
  GI50: > 10 µM (inactive)
U-251
  GI50: > 10 µM (inactive)
UACC-257
  GI50: > 10 µM (inactive)
UACC-62
  GI50: > 10 µM (inactive)
UO-31
  GI50: > 10 µM (inactive)

## CC(=O)Oc1ccn2nc(C)c(Br)c2c1
786-0
  GI50: > 100 µM (inactive)
A498
  GI50: > 100 µM (inactive)
A549
  GI50: > 70.5 µM (inactive)
ACHN
  GI50: > 100 µM (inactive)
BT-549
  GI50: > 100 µM (inactive)
CCRF-CEM
  GI50: 29.9 µM (inactive)
COLO 205
  GI50: 25.6 µM (inactive)
DU-145
  GI50: > 100 µM (inactive)
EKVX
  GI50: > 83.2 µM (inactive)
HCC 2998
  GI50: > 100 µM (inactive)
HCT-116
  GI50: > 100 µM (inactive)
HCT-15
  GI50: 65.2 µM
HL-60
  GI50: 25.9 µM (inactive)
HOP-62
  GI50: > 67.1 µM (inactive)
HOP-92
  GI50: > 87.1 µM (inactive)
HT-29
  GI50: 53.3 µM (inactive)
Hs-578T
  GI50: > 100 µM (inactive)
IGROV-1
  GI50: > 100 µM (inactive)
K562
  GI50: 39.2 µM (inactive)
KM12
  GI50: > 100 µM (inactive)
LOX IMVI
  GI50: 34 µM (inactive)
M14
  GI50: > 100 µM (inactive)
MCF7
  GI50: 47.8 µM (inactive)
MDA-MB-231
  GI50: > 81.3 µM (inactive)
MDA-MB-435
  GI50: 31.8 µM (inactive)
MDA-N
  GI50: 49.3 µM (inactive)
MOLT-4
  GI50: 43 µM (inactive)
Malme-3M
  GI50: 64.1 µM (inactive)
NCI-H226
  GI50: > 100 µM (inactive)
NCI-H23
  GI50: > 58.2 µM (inactive)
NCI-H460
  GI50: 98.2 µM (inactive)
NCI-H522
  GI50: 28.8 µM (inactive)
NCI/ADR-RES
  GI50: > 100 µM (inactive)
OVCAR-3
  GI50: 39.3 µM (inactive)
OVCAR-4
  GI50: > 100 µM (inactive)
OVCAR-5
  GI50: > 100 µM (inactive)
OVCAR-8
  GI50: > 64.4 µM (inactive)
PC-3
  GI50: > 53.6 µM (inactive)
RXF 393
  GI50: 65.3 µM (inactive)
SF-268
  GI50: > 53.8 µM (inactive)
SF-295
  GI50: > 100 µM (inactive)
SF-539
  GI50: > 100 µM (inactive)
SK-MEL-28
  GI50: > 100 µM (inactive)
SK-MEL-2
  GI50: > 54 µM (inactive)
SK-MEL-5
  GI50: 42.6 µM (inactive)
SN12C
  GI50: > 100 µM (inactive)
SNB-19
  GI50: > 100 µM (inactive)
SNB-75
  GI50: > 44.1 µM (inactive)
SR
  GI50: > 76.7 µM (inactive)
SW-620
  GI50: > 100 µM (inactive)
T47D
  GI50: 99.1 µM (inactive)
TK-10
  GI50: > 100 µM (inactive)
U-251
  GI50: 97.7 µM (inactive)
UACC-257
  GI50: 36.2 µM (inactive)
UACC-62
  GI50: 25.5 µM (inactive)

## O=c1c2cccnc2n2n1Cc1ccccc1C2
786-0
  GI50: > 100 µM (inactive)
A498
  GI50: > 100 µM (inactive)
A549
  GI50: > 100 µM (inactive)
ACHN
  GI50: > 100 µM (inactive)
BT-549
  GI50: > 100 µM (inactive)
CAKI-1
  GI50: > 100 µM (inactive)
CCRF-CEM
  GI50: > 100 µM (inactive)
DU-145
  GI50: > 100 µM (inactive)
EKVX
  GI50: 71.3 µM (inactive)
HCC 2998
  GI50: > 100 µM (inactive)
HCT-116
  GI50: > 100 µM (inactive)
HCT-15
  GI50: > 100 µM
HL-60
  GI50: > 100 µM (inactive)
HOP-62
  GI50: > 100 µM (inactive)
HOP-92
  GI50: > 100 µM (inactive)
HT-29
  GI50: > 100 µM (inactive)
Hs-578T
  GI50: > 100 µM (inactive)
IGROV-1
  GI50: > 100 µM (inactive)
K562
  GI50: > 100 µM (inactive)
LOX IMVI
  GI50: > 100 µM (inactive)
MCF7
  GI50: > 100 µM (inactive)
MDA-MB-231
  GI50: > 100 µM (inactive)
MDA-MB-435
  GI50: > 100 µM (inactive)
MDA-N
  GI50: > 100 µM (inactive)
MOLT-4
  GI50: > 100 µM (inactive)
Malme-3M
  GI50: > 100 µM (inactive)
NCI-H226
  GI50: > 100 µM (inactive)
NCI-H23
  GI50: > 100 µM (inactive)
NCI-H460
  GI50: > 100 µM (inactive)
NCI-H522
  GI50: > 100 µM (inactive)
NCI/ADR-RES
  GI50: > 100 µM (inactive)
OVCAR-3
  GI50: > 100 µM (inactive)
OVCAR-4
  GI50: > 100 µM (inactive)
OVCAR-5
  GI50: > 100 µM (inactive)
OVCAR-8
  GI50: > 100 µM (inactive)
PC-3
  GI50: > 100 µM (inactive)
RPMI-8226
  GI50: > 100 µM (inactive)
RXF 393
  GI50: > 100 µM (inactive)
SF-268
  GI50: > 100 µM (inactive)
SF-295
  GI50: > 100 µM (inactive)
SF-539
  GI50: > 100 µM (inactive)
SK-MEL-28
  GI50: > 100 µM (inactive)
SK-MEL-5
  GI50: > 100 µM (inactive)
SK-OV-3
  GI50: > 100 µM (inactive)
SN12C
  GI50: > 100 µM (inactive)
SNB-75
  GI50: > 100 µM (inactive)
SR
  GI50: > 100 µM (inactive)
SW-620
  GI50: > 100 µM (inactive)
T47D
  GI50: > 100 µM (inactive)
TK-10
  GI50: > 100 µM (inactive)
U-251
  GI50: > 100 µM (inactive)
UACC-257
  GI50: > 100 µM (inactive)
UACC-62
  GI50: > 100 µM (inactive)
UO-31
  GI50: > 100 µM (inactive)
